Experiments:
Assay type in all cases: cell-based, human
hMSCs [1] = assay: Protein synthesis assay in undifferentiated hMSCs; settings: for citrate-mediated protein synthesis in presence of inhibitor: GM, with citrate
Experimental: Upon 24 and 96 hours incubation, protein synthesis was measured by labeling the intracellular translating proteins with clickable probes (Protein Synthesis Assay kit, Cayman Chemical, Ann Arbor, Mich.).

hMSCs [2] = assay: ALP production / osteogenic markers of hMSCs with soluble citrate, PSer or inhibitor (PNPP assay, western blot)
Source text: (§1) hMSCs with passage ≤6 were used in the present differentiation study. […] For osteo-phenotype progression assessment, cells were lysed, and alkaline phosphatase (ALP) production was quantified by using p-nitrophenyl phosphate (PNPP) as its substrate. Alizarin Red was used to stain the calcium nodules formed by the differentiating cells, and the calcium content in the nodules was quantified by Calcium Assay Kit (Sigma-Aldrich, St. Louis, Mo.) and normalized to protein amount as determined by BCA protein assay kit (Thermo Scientific™, Waltham, Mass.). Expression of osteogenic master transcription factor Runx2 was examined by real-time PCR and by using a Runx2 ELISA kit (American Research Products, Inc.™, Waltham, Mass.) according to manufacturer's instructions. Moreover, the expression of bone matrix proteins Collagen type I and osteopontin (OPN) were evaluated with real-time PCR, while OPN expression were also observed by immunofluorescent staining. Western blot was performed to evaluate the expression of ALP, OPN and SLC13a5 before or after differentiating for predetermined time periods.
For ALP expression analysis, cell samples were lysed using RIPA buffer, and the cell lysate was centrifuged to remove debris. Then ALP activity measurement was performed by utilizing p-nitrophenyl phosphate (PNPP) which is hydrolyzed by ALP into a yellow colored product. Briefly, the PNPP stock solution (IM) was diluted with ALP assay buffer at a ratio of 1:100, 50 μL of which was subsequently added to 50 μL of lysate sample. After 10-30 min of incubation at 37° C., the plates were measured at 405 nm on a plate reader (TECAN, Männedorf, Switzerland). The same cell lysate solutions were used to determine DNA amount via a PicoGreen dsDNA quantification kit (Invitrogen, Carlsbad, Calif.) according to the manufacturer's instructions.
After protein quantification by BCA assay, gel electrophoresis was carried out on AnykD™ Mini-Protean TGX stain-free Protein gels at 50 V for 10 min, followed by 250 V for 10-20 min, and was transferred to PVDF membranes with the Trans-Blot Turbo™ system. […]

hMSCs [3] = assay: Intracellular ATP determination in hMSCs
hMSCs [4] = assay: Real-time PCR of osteogenic genes in differentiating hMSCs; settings: 200 μM citrate vs OG control, 7 and 14 days
Source text: as §1
Total RNA from whole cells was isolated with QIAGEN RNeasy kit (Hilden, Germany) and was transcribed into cDNA using High-Capacity cDNA Reverse Transcription Kits (Applied Biosystems™, Foster City, Calif.). For quantitative analysis, real-time PCR was performed using cDNA as the template, together with TaqMan Gene Expression Master Mix and the TaqMan Gene Expression Assays with both primers and probe included (Applied Biosystems™, Foster City, Calif.), and using the ABI 7900HT Fast Real-Time PCR system (Applied Biosystems™, Foster City, Calif.) according to manufacturer's instructions. Human PPIA (Cyclophilin A) was used for normalization. The primers and TaqMan probe for human Runx2, CoL1A1, SPP1 and PPIA were Hs00231692_ml, Hs00164004_ml, Hs00959010_ml, and Hs99999904_ml, respectively.

hMSCs [5] = assay: Extracellular acidification rate (ECAR) / glycolysis and lactate production in hMSCs; settings: undifferentiated hMSCs, 24 h citrate treatment in GM
hMSCs [6] = assay: hMSC proliferation with citrate (CCK-8); settings: citrate 0 to 2000 μM, pH 7.4, in growth medium (GM)
Source text: as §1
Human mesenchymal stem cells (hMSCs; Lonza) were cultured in low glucose Dulbecco's Modified Eagle Medium (DMEM) with 10 vol. % fetal bovine serum (FBS) (Atlanta Biologicals; Flowery Branch, Ga.) and GlutaMAX (Gibco Laboratories, Gaithersburg, Md.). […]

hMSCs [7] = assay: Oxygen consumption rate (OCR) study in hMSCs
hMSCs [8] = assay: Citrate assay, intracellular citrate in hMSCs; settings: 24 h incubation with citrate supplemented medium
hMSCs [9] = assay: Alizarin Red staining and calcium quantification of hMSCs; settings: citrate in growth medium (GM)
Experimental: hMSCs with passage ≤6 were used in the present differentiation study. […] Alizarin Red was used to stain the calcium nodules formed by the differentiating cells, and the calcium content in the nodules was quantified by Calcium Assay Kit (Sigma-Aldrich, St. Louis, Mo.) and normalized to protein amount as determined by BCA protein assay kit (Thermo Scientific™, Waltham, Mass.).
For Alizarin Red staining, cell samples were fixed with 4% paraformaldehyde, and 40 mM Alizarin red solutions were used to stain calcium nodules for 30 min with gentle shaking. After thoroughly washing, the stained cells were observed on a Microscope (Nikon, Tokyo, Japan). For calcium quantification, cell samples were washed with PBS and decalcified in 0.6 N HCl for 12 h with gentle shaking. Calcium content in the supernatants was determined colorimetrically by using the Calcium assay kit (Sigma-Aldrich, St. Louis, Mo.), while protein content in cell lysate solutions (lysed with RIPA buffer) was determined using the Pierce BCA protein assay kit (Thermo Scientific™, Waltham, Mass.) according to manufacturer's instructions.

hMSCs [10] = assay: Runx2 ELISA in hMSCs; settings: citrate treatment in OG, as early as day 4
Source text: as §1

[11] = differentiating hMSCs in OG, vs OG medium control
[12] = undifferentiated hMSCs, 24 h citrate treatment in GM

C[C@@H]1C[C@@H]([C@H](O)CC2CC(=O)NC(=O)C2)C(=O)[C@@H](C)C1 [Cycloheximide]
citrate-mediated protein synthesis in presence of inhibitor (hMSCs [1]): abolished this activity

N[C@@H](COP(=O)(O)O)C(=O)O [PSer, Phosphoserine]
citrate-promoted osteo-phenotype progression (ALP production) (hMSCs [2]; 40 μM PSer with citrate in OG, 21 days): substantially enhanced
ALP production (hMSCs [2]; higher PSer dosages (up to 1000 μM) with citrate in OG, 21 days): further elevation of ALP production
intracellular ATP (hMSCs [3]; [11]): showed no difference from the OG medium control
intracellular ATP levels (hMSCs [3]; undifferentiated hMSCs, addition of PSer with or without citrate treatment): no significant effect

O=C(O)CC(O)(CC(=O)O)C(=O)O [citrate]
expression of Col1a1 (real-time PCR) (hMSCs [4]): remarkably elevated expression
expression of Runx2 (real-time PCR) (hMSCs [4]): remarkably elevated expression
expression of SPP1 (real-time PCR) (hMSCs [4]): remarkably elevated expression
glycolytic flux (ECAR) (hMSCs [5]): decrease in glycolytic flux
production of lactate (hMSCs [5]): reduced production of lactate
hMSCs proliferation (hMSCs [6]): little increase
mitochondrial respiration (OCR) (hMSCs [7]; hMSCs differentiated for 14 days, 1 day citrate treatment in OG): markedly increased
oxygen consumption rate (OCR) (hMSCs [7]; [12]): increased oxygen consumption rate
protein synthesis (hMSCs [1]; 200 μM citrate in GM, 24 h and 96 h, vs control without citrate): increased significantly
intracellular citrate (hMSCs [8]): marked increase
intracellular ATP (hMSCs [3]; [11]): showed no difference from the OG medium control
intracellular ATP (hMSCs [3]; hMSCs differentiated for 14 days, citrate in OG for 1 or 4 days): significant effects on intracellular ATP only after 4 days of treatment
intracellular ATP levels (hMSCs [3]; [12]): elevated intracellular ATP levels
calcium deposition by Alizarin Red staining (hMSCs [9]): absence of calcium deposition
Runx2 protein (ELISA) (hMSCs [10]): favorable accumulation

COc1ncc(C)cc1CC[C@@](O)(CC(=O)O)C(=O)O [PF06761281, reference compound]
citrate-induced elevation of ALP production with SLC13a5 inhibitor (hMSCs [2]; 14 days in OG, citrate plus inhibitor): negated the citrate-induced elevation of ALP production
citrate-increased mitochondrial respiration with SLC13a5 inhibitor (hMSCs [7]; hMSCs differentiated for 14 days, 1 day treatment in OG): likewise abolished
citrate effect on metabolic flux to elevate intracellular ATP levels, with SLC13a5 inhibitor (hMSCs [3]; undifferentiated hMSCs, citrate plus inhibitor): could be abolished

CCC(=O)N1CCN(c2ccc(-n3c(=O)ccc4cnc5ccc(-c6cnc7ccccc7c6)cc5c43)cc2C(F)(F)F)CC1 [Torin1]
citrate-mediated protein synthesis in presence of inhibitor (hMSCs [1]): abolished this activity

— US11738042B2, “Compositions and methods for promoting bone regeneration” (The Penn State Research Foundation, priority 2018, dated 2023)
